In a melting point compilation (Tetko et al.; mined from patent text by program, amines drawn as free bases though some values may be those of a salt):

Row | melting point [°C] | Structure (SMILES)
1 | 70 to 71 | CCCCCN(CCc1c[nH]c2ccccc12)C(=O)CCCC(=O)OC
2 | 42 to 43 | CCCCCCOC(=O)c1nc2cc(Cl)ccc2o1
3 | 216 to 219 | CCC(=O)NCCC1CCc2ccc3c(c21)NC(=O)CO3 (stereo not drawn)
4 | 142 to 145 | COc1ccc(S(=O)(=O)C2(C(=O)NO)CCN(CC=C(C)C)CC2)cc1
5 | 110 to 112 | CCCCC(=O)Nc1cc(C(=O)N2CCOCC2)ccn1
6 | 168 to 171 | Cc1ccc(-c2c(N)ncnc2Cl)cc1
7 | > 300 | Cc1cc(=O)[nH]c2c(C)cc(Br)cc12
8 | 115 to 117 | C/C(=C(\Br)C=O)c1ccc2c(c1)C(C)(C)CCC2(C)C
9 | > 250 | Cc1cccc2[nH]c(=O)n(S(=O)(=O)c3ccc(Cl)cc3)c(=O)c12
10 | 165 to 166 | N#Cc1ccc(OCC(O)CN2CC3CC(C2)CN(C(=O)OCc2ccc([N+](=O)[O-])cc2)C3)cc1 (stereo not drawn)
11 | 254 to 255 | C[C@H]1CC[C@H](Nc2nccc(-n3ncc4c([N+](=O)[O-])cccc43)n2)CC1
12 | 48 to 49 | COC(=O)/C(=C\O)c1ccccc1C
13 | 272 to 274 | COc1c(NC(=O)COc2ccccc2)c(C(N)=O)c(OC)c(NC(=O)COc2ccccc2)c1C(N)=O
14 | 257 to 258 | Cc1cc(Cl)n2nc(S(=O)(=O)Nc3c(Cl)cccc3Cl)nc2c1
15 | 125 to 127 | CC(C)c1cccc(C(C)C)c1NC(=O)CN(CC1(Nc2ccccc2)CCCCC1)C(=O)OC(C)(C)C
16 | 84.5 to 86 | COC(=O)c1ccccc1-c1cnc(-c2cccc(C(F)(F)F)c2)o1
17 | 189 to 191 | CCN1C(=O)N(c2cc(OC)cc(OC)c2Cl)Cc2cnc(SC)nc21
18 | 143 to 145 | O=CNC1=NN(c2cccc(Cl)c2)CC1
19 | 202 | O=C(O)Cc1ccc2c(c1)Nc1ccccc1S2
20 | 218 | NC(=O)[C@@H]1[C@H]2CC[C@H](C2)[C@@H]1Nc1nc(Nc2ccc3c(c2)CCC(NCC(F)(F)F)CC3)ncc1Cl (stereo partly drawn)
21 | 167 to 173 | CSc1nc(-c2cc(NC(=O)c3ccc(C)c(F)c3)ccc2C)c2c(n1)N(c1c(F)cccc1F)C(=O)NC2
22 | 102 to 103 | CC(=Cc1ccccc1)c1ccc2c(c1)C(C)(C)CC(O)C2(C)C (stereo not drawn)
23 | 130 to 132 | O=c1oc(-c2ccc(OCC3CCCCC3)cc2)cc(O)c1SCCc1ccccc1

Row | melting point [°C] | Structure (SMILES)
24 | 174 | CC(C)(C)OC(=O)[C@H]1CC[C@@H](c2ccccn2)N1C(=O)CNC(=O)Nc1cccc(C(=O)O)c1 (racemic)
25 | 212 to 214 | CCN1C(=O)C(C(=O)Nc2ccc(F)cc2)c2cc3c(cc21)C=CCO3 (stereo not drawn)
26 | 302 to 304 | Cc1c2c(c(-c3ccc(F)cc3)c3c4c(ccc13)OCO4)C(=O)NC2=O
27 | 102 to 107 | Nc1ccc(C(CC2CCCC2)C(=O)Nc2nccs2)cc1 (stereo not drawn)
28 | 218 to 219 | COc1ccc(C#Cc2cc(Cl)cc3c2OC(C(F)(F)F)C(C(=O)O)=C3)cc1 (stereo not drawn)
29 | 195 | CCCC1=C(C(=O)OCC)C(c2ccccc2OC2CCCC2)c2c[nH]nc2N1 (stereo not drawn)
30 | 170 to 171 | Cc1c(N2CCN(Cc3ccccc3)C(C)(C)C2)c(F)cc2c(=O)c(C(=O)O)cn(C3CC3)c12
31 | 142 to 144 | COc1cc(C(=O)O)c(OC)c2ccccc12
32 | 169 to 170 | CCCCc1c(Cl)nc(N)nc1Cl
33 | 155 to 157 | CC(=O)c1cccc(NC(=O)c2nnnn2Cc2ccccc2)c1O
34 | 114 to 116 | CCCCOc1cc(CCS(=O)(=O)NC(=O)OCC(C)C)n(Cc2ccc(Cl)cc2Cl)n1
35 | 64.5 to 65.5 | CCCCC#CCCOc1ccc(C=O)cc1OC
36 | 109 to 110 | Clc1ncc(Br)n2nc(SCc3ccccc3)nc12
37 | 36 | CCCCc1cccc(NC(=O)C=C(C)OC)c1
38 | 155 to 159 | O=C1c2ccccc2C(=O)C1(O)c1ccccc1O
39 | 148 to 151 | CC(=O)OC1CSC(Oc2cccc(C#N)c2)C(OC(C)=O)C1OC(C)=O (stereo not drawn)
40 | 200 to 204 | Nc1sc(-c2ccc(Cl)cc2)c(CN(C2CCCCC2)C2CCCCC2)c1C(=O)c1ccc(Cl)cc1
41 | 138 to 139 | CCC(=S)NC[C@H]1CN(c2ccc(N3CCOCC3)c(F)c2)C(=O)O1
42 | 236 to 238 | Cn1nc(-c2cccc(N3Cc4cc(C(C)(C)C)ccc4C3=O)c2CO)cc(Nc2ccncn2)c1=O
43 | 183 | OCCNc1cc(Nc2ccc(Cl)cc2)ncn1
44 | 105 to 108 | CCOC(C(=O)O)N1CCN2c3ccccc3Cc3ccccc3C2C1 (stereo not drawn)
45 | 206 to 209 | CN(Cc1ccc(CCn2cnc3cc(-c4ccc(Cl)cc4)sc3c2=O)cc1)C(=O)OC(C)(C)C
46 | 130 to 131 | CCCCOc1c(CNC(=O)OC(C)(C)C)n(CC(C)C)c(=O)c2ccc(-c3cccs3)cc12

Row | melting point [°C] | Structure (SMILES)
47 | 202 to 204 | CCCC(=O)Nc1c2c(nc3ccccc13)CCCC2
48 | 88 to 89 | O=C1c2ccccc2C(=O)N1CCCc1cccnc1
49 | 162 to 165 | CC(=O)OCc1nccc2[nH]c(=O)ccc12
50 | 204 to 206 | CN1CCN(C(=O)c2ccc(-c3cnc4c(c3)N(Cc3cc(F)ccc3F)C(=O)C(C)(C)N4)cc2)CC1
51 | > 300 | Nc1c2c(nc3[nH]c4ccccc4c13)CCCC2=O
52 | 260 to 262 | COc1cc(N2CCN(C(=O)c3ccc(Nc4ccnc5cc(C(F)(F)F)ccc45)cc3)CC2)nc(OC)n1
53 | 115 to 116 | C=CCC(C)(CC=C)C(=O)O[C@H]1C[C@H](O)C=C2C=C[C@H](C)[C@H](CC[C@@H]3C[C@@H](O)CC(=O)O3)[C@H]21
54 | 234 to 236 | C[C@H]1CN(c2c(F)cc3c(=O)c(C(=O)O)cn(CCF)c3c2Cl)C[C@H]1N (relative stereo)
55 | 188 to 191 | Cn1c(NCc2cccc(NC(=O)C=Cc3ccccc3Cl)c2)nc2ccccc21
56 | 153 to 154 | COc1ccc2c(c1)N(CCNC(C)=O)CC(c1ccccc1)O2 (stereo not drawn)
57 | 84.5 to 86 | CC(C)(C)OC(=O)NCCC(=O)NCC(C(=O)OCc1ccccc1)c1ccccc1 (stereo not drawn)
58 | 172 to 176 | CCOC(=O)CN(Cc1cc(-n2cc(C)nc2C)ccc1[N+](=O)[O-])C(=O)C(F)(F)F
59 | 118 to 120 | O=C(Cl)c1cc(Oc2ccc(C(F)(F)F)cc2Cl)ccc1[N+](=O)[O-]
60 | 76 to 79 | CCCCCCCCCCCCCCCCCC(=O)Nc1cccc(C(=O)N(CC(=O)OCC)CC(=O)OCC)c1
61 | 124 to 126 | CCOC(=O)c1[nH]cc(C)c(=O)c1C
62 | 114 to 116 | Cc1ccc([N+](=O)[O-])cc1Nc1cccc(Br)c1
63 | 65 | CCOC(=O)c1cnc(N(C)C)nc1
64 | 124 to 125 | CC(C)(C)O[C@@H]1C[C@@H](CO)N(S(=O)(=O)c2ccc3ccccc3c2)C1
65 | 140 to 142 | CCCCCNC(=O)CC(c1ccc(OC)c(OC)c1)N1C(=O)c2ccccc2C1=O (stereo not drawn)
66 | 196 to 197 | C[C@@H](n1cnc2cc(N3CCOCC3)ccc2c1=O)[C@](O)(Cn1cncn1)c1ccc(F)cc1F
67 | 140 to 142 | Cc1cccc(C)c1N1C(=N)C(C)N(c2c(C)cccc2C)C1C(=O)OCc1ccc(Cl)cc1 (stereo not drawn)
68 | 231 to 234 | CC(C)(C)C(NC(=O)c1ccc(Cl)cc1)Nc1c(Nc2cccnc2F)c(=O)c1=O (stereo not drawn)
69 | 160 to 163 | CCC(c1oc2ccccc2c(=O)c1-c1ccccc1F)n1cnc2c(N)ncnc21 (stereo not drawn)

Row | melting point [°C] | Structure (SMILES)
70 | 188 to 189 | Cn1nc2c(N)nc3ccccc3c2c1CCCCNS(C)(=O)=O
71 | 91.2 to 94 | CCC(Cc1ccccc1-c1ccccc1)C(=O)O (stereo not drawn)
72 | 200 to 202 | CC(C)(C)c1ccc2c(c1)C=C(/C=C/C=C/C=C/C(=O)O)CO2
73 | 154 to 155 | CCCCc1c(Cl)nc(N)nc1-c1ccsc1
74 | 45 | CC(C)(C)COc1ccc(N)cc1Br
75 | 230 to 234 | CCCc1nc2cc(Cl)c(S(N)(=O)=O)cc2[nH]1
76 | 66 to 67 | c1ccc2cc(Cc3ccncc3)ccc2c1
77 | 161 to 162 | COc1cc(C(=O)Nc2c(C)cc3cn(C(=O)OC(C)(C)C)nc3c2C(=O)NC(C)C)n(N2C=CC=C(Cl)C2)n1
78 | 50 to 60 | COc1ncc(C)nc1NS(=O)(=O)c1cccc(Cl)c1Cl
79 | 119 to 121 | COc1ccc(N(CCCC(=O)O)C(=O)CCCN(C(=O)c2ccc(Cl)cc2)c2c(C)cccc2C)cc1
80 | 192 to 193 | CCOC(=O)N1CC2CCN(c3c(F)cc4c(=O)c(C(=O)O)cn(C5CC5)c4c3F)C2C1 (stereo not drawn)
81 | 40 to 43 | Cc1oncc1C(=O)N1CCCCC1
82 | 101 to 102 | C=CC(=O)[C@@H]1CCCC[C@H]1C(=O)O (relative stereo)
83 | 143 to 144 | O=C1N[C@H](Cc2ccc(C(F)(F)F)cc2)[C@H](c2cccc(F)c2)O1 (racemic)
84 | 140 to 142 | COc1cc2c(cc1O)CCN(S(=O)(=O)c1ccccc1OC)C2
85 | 111 to 112 | c1cc(NC2CC2)ccn1
86 | 166 to 167 | Cc1ccn2c(C(=O)NCc3ccccc3)c(C)nc2c1
87 | 185 | CN1CCN(c2cnc(-c3cc(Cl)cc(Cl)c3Cl)c(N)n2)CC1
88 | 95 to 112 | COc1cc(C(=O)N2CCC(CCN3CCCN(c4nc5ccccc5n4CCCC(C)=O)CC3)(c3ccccc3)C2)cc(OC)c1OC (stereo not drawn)
89 | 262 to 263 | Cn1c2c(c3ccccc31)CC(C(=O)O)N(C(=O)c1ccc(Cl)cc1)C2 (stereo not drawn)
90 | 70 to 72 | COC(=O)CCC(=O)c1ccc2c(c1)CC(CO)O2 (stereo not drawn)
91 | 158 | N#Cc1c(N2CCN(C(=O)c3cccs3)CC2)c2cc(Cl)cnc2[nH]c1=O
92 | 250 | CCCC(=O)Nc1n[nH]c2cc(-c3ccc([N+](=O)[O-])cc3)ccc12

Row | Structure (SMILES) | melting point [°C]
93 | Cc1nnc(CO)n1-c1ccc(Cl)cc1C(=O)c1ccccc1Cl | 194 to 195
94 | CCCN(c1ccncc1)N1C(=O)C2(CCN(C)CC2)c2ccccc21 | 125 to 127
95 | Cc1c(Cl)c(=O)n2c3c(cc(C(O)(C(F)(F)F)C(F)(F)F)cc13)CCC2 | 266 to 268
96 | COc1cc(NC(=O)Oc2ccc(N(CCCl)CCCl)cc2)cc(Nc2c3ccccc3nc3ccccc23)c1 | 179 to 180
97 | O=C(c1ccc(F)cc1)C1CC2CCN1CC2 (stereo not drawn) | 68 to 69
98 | CC(C)Cn1cnc2c(Br)c(NC3=NCCN3)ccc21 | 226 to 227
